Literature values, collected in PMC9851200, “Multiparameter phenotypic screening for endogenous TFEB and TFE3 translocation identifies novel chemical series modulating lysosome function” (Autophagy, 2022).

Tests used:
Set-up in all cases: method as in original PKIS2 published data
[1] = biological target: kinases (KINOMEscan panel) (Homo sapiens, UniProt Q9UPE1); details: SRPK3; Published KINOMEscan; ref original PKIS2 published data; cited from earlier work
[2] = biological target: T1, kinases (KINOMEscan panel) (Homo sapiens, UniProt P54762); details: kinase EPHB1; Published KINOMEscan; ref original PKIS2 published data; cited from earlier work
T1 sequence (P54762 18-984): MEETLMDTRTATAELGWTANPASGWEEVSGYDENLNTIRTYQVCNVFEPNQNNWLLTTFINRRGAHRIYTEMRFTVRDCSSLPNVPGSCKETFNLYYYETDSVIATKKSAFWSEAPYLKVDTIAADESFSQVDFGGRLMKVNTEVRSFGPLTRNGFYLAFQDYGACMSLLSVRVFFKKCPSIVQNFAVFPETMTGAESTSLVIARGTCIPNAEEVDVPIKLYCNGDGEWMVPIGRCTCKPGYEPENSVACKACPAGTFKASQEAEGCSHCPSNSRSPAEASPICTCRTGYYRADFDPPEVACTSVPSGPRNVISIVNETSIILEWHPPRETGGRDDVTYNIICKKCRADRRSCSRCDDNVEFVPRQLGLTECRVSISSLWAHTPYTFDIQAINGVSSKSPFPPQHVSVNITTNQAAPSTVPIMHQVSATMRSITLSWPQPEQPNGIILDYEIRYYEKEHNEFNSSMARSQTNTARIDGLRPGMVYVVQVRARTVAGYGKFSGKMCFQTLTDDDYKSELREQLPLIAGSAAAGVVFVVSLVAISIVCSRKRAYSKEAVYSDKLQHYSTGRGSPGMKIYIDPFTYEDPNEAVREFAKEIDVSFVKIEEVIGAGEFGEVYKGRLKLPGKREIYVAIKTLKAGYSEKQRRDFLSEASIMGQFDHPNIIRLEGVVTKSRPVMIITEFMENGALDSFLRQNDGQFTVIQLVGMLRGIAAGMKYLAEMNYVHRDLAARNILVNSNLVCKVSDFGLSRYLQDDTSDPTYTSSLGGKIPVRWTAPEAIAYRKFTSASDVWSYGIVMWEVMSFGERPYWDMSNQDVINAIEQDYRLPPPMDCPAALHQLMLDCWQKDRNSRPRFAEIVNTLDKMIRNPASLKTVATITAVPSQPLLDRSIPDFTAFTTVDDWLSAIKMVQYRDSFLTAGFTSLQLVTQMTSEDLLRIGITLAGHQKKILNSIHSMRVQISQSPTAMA

[3] = biological target: kinases (KINOMEscan panel) (Homo sapiens, UniProt Q9Y6R4); details: MAP3K4; Published KINOMEscan; ref original PKIS2 published data; cited from earlier work
[4] = biological target: kinases (KINOMEscan panel) (Homo sapiens, UniProt Q16513); details: kinase PKN2; Published KINOMEscan; ref original PKIS2 published data; cited from earlier work
[5] = biological target: kinases (KINOMEscan panel) (Homo sapiens, UniProt Q9H0K1); details: kinase SIK2; Published KINOMEscan; ref original PKIS2 published data; cited from earlier work
[6] = biological target: kinases (KINOMEscan panel) (Homo sapiens, UniProt P32298); details: kinase GRK4; Published KINOMEscan; ref original PKIS2 published data; cited from earlier work
[7] = biological target: kinases (KINOMEscan panel) (Homo sapiens, UniProt P49841); details: Published KINOMEscan; ref original PKIS2 published data; cited from earlier work
[8] = biological target: kinases (KINOMEscan panel) (Homo sapiens, UniProt Q00536); details: kinase CDK16; Published KINOMEscan; ref original PKIS2 published data; cited from earlier work
[9] = biological target: kinases (KINOMEscan panel) (Homo sapiens, UniProt Q13627); details: Published KINOMEscan; ref original PKIS2 published data; cited from earlier work

Sequence of kinases (KINOMEscan panel) (Homo sapiens, UniProt Q00536) (Q00536 whole entry): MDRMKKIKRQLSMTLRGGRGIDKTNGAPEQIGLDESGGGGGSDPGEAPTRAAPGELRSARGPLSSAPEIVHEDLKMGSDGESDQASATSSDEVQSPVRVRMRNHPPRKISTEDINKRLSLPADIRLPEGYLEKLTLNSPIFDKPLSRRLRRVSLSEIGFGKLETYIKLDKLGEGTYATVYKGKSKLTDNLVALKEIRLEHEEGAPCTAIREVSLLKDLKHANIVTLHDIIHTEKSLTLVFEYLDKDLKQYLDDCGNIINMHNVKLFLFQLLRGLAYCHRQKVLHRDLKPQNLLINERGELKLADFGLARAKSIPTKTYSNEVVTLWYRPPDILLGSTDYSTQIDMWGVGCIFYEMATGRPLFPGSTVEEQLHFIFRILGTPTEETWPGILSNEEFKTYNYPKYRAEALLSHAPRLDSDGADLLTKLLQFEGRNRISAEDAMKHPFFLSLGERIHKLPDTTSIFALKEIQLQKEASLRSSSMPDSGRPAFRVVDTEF
Sequence of kinases (KINOMEscan panel) (Homo sapiens, UniProt Q9H0K1) (Q9H0K1 whole entry): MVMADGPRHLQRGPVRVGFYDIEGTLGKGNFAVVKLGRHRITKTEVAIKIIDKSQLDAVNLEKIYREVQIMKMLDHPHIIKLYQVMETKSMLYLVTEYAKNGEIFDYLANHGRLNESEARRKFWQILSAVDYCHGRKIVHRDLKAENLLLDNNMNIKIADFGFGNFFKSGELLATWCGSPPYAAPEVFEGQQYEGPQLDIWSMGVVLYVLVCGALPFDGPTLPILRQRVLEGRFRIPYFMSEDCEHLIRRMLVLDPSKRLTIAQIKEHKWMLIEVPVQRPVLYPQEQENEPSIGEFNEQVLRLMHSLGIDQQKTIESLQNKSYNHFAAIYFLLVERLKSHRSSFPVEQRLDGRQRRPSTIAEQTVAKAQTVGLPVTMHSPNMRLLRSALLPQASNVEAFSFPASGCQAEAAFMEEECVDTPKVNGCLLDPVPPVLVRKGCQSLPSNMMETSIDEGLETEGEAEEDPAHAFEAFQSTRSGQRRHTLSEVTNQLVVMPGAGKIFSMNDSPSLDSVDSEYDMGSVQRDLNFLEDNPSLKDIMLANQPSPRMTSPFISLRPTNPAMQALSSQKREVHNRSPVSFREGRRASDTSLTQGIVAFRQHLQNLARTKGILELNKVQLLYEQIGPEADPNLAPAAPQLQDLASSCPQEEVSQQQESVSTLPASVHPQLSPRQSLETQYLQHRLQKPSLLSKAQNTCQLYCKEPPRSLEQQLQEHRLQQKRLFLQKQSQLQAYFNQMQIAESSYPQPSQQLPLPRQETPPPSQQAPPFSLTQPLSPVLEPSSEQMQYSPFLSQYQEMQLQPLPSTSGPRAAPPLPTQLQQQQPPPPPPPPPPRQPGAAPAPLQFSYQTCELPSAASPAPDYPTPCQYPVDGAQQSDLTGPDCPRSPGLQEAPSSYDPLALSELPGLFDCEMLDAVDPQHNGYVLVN
Sequence of kinases (KINOMEscan panel) (Homo sapiens, UniProt Q9Y6R4) (Q9Y6R4 whole entry): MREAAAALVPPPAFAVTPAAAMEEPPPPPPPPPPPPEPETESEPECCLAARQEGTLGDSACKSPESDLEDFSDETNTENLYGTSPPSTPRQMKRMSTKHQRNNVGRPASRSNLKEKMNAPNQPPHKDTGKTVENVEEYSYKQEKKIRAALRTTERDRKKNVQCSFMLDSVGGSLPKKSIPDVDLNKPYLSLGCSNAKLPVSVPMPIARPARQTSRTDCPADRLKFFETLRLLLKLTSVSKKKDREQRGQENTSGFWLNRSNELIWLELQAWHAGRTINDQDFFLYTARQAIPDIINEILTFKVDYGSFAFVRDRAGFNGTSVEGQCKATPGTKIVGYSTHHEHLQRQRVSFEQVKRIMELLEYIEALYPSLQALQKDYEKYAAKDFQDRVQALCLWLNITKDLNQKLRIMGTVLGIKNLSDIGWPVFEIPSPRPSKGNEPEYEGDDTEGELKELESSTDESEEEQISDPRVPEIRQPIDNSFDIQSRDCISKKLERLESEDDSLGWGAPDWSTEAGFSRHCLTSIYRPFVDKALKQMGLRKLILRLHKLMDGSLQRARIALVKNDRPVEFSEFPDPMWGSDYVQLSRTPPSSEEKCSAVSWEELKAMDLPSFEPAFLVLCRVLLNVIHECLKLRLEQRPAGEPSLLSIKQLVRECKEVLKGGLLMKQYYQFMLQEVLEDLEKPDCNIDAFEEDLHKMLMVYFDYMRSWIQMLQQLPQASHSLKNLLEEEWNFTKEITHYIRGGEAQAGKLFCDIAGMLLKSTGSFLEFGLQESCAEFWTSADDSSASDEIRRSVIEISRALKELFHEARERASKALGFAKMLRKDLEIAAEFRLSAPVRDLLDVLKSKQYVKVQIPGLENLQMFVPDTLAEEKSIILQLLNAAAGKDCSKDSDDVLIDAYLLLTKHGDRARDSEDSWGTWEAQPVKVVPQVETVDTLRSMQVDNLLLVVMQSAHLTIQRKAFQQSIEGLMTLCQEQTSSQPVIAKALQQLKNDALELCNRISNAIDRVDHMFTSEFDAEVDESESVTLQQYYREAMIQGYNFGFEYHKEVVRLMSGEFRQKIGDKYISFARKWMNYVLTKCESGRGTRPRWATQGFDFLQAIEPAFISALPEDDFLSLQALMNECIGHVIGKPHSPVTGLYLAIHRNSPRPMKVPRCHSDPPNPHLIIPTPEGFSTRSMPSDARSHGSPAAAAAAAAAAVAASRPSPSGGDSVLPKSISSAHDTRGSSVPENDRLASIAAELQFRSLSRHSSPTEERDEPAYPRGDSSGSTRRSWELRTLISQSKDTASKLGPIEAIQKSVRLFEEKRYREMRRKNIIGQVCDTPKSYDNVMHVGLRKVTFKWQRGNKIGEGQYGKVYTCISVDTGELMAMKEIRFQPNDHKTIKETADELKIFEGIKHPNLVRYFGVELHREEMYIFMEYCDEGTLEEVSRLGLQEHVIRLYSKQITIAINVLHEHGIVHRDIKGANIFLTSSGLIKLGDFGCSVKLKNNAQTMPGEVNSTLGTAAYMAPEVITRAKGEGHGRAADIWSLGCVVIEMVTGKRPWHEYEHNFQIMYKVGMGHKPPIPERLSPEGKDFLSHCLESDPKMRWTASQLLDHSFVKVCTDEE
Sequence of kinases (KINOMEscan panel) (Homo sapiens, UniProt P32298) (P32298 whole entry): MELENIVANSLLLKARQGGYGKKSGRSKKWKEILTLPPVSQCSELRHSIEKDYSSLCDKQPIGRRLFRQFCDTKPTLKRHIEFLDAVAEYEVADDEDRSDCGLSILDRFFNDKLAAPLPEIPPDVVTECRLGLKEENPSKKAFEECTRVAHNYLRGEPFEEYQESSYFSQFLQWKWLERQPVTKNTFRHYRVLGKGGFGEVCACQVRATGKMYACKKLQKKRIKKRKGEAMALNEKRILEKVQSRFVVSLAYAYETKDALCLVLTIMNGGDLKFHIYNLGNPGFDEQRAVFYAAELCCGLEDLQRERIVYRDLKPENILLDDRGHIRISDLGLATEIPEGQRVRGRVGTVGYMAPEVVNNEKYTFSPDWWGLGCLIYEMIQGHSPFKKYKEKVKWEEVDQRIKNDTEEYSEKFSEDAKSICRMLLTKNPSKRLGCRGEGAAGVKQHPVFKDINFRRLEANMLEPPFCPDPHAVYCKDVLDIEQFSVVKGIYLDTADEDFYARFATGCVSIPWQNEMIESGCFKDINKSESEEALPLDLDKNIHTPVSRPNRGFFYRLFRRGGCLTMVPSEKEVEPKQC
Sequence of kinases (KINOMEscan panel) (Homo sapiens, UniProt Q16513) (Q16513 whole entry): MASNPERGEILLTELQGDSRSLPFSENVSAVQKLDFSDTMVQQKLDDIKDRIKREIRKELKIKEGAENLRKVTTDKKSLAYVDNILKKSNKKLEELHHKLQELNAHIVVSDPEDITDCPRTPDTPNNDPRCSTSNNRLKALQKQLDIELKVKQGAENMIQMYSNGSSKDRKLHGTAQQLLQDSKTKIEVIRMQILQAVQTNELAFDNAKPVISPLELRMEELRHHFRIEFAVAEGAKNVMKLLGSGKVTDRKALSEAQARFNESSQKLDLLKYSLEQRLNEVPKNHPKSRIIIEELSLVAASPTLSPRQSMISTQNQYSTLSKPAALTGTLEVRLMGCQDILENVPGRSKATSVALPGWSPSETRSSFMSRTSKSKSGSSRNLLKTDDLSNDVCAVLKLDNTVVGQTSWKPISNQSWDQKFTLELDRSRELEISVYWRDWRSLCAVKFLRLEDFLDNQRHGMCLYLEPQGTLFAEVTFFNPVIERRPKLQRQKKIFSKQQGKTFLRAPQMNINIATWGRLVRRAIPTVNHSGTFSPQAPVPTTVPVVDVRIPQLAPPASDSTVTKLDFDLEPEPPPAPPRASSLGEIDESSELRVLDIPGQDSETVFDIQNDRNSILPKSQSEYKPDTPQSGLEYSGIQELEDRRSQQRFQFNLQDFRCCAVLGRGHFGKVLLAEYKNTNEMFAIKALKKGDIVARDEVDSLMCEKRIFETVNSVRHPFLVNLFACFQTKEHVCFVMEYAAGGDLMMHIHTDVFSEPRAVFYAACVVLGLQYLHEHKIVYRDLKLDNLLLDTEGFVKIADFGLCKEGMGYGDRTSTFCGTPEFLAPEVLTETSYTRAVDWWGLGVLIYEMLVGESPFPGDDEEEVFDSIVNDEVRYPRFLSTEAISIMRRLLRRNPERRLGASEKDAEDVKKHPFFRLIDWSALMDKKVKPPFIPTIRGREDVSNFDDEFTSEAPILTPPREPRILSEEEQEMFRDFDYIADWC
Sequence of kinases (KINOMEscan panel) (Homo sapiens, UniProt P49841) (P49841 whole entry): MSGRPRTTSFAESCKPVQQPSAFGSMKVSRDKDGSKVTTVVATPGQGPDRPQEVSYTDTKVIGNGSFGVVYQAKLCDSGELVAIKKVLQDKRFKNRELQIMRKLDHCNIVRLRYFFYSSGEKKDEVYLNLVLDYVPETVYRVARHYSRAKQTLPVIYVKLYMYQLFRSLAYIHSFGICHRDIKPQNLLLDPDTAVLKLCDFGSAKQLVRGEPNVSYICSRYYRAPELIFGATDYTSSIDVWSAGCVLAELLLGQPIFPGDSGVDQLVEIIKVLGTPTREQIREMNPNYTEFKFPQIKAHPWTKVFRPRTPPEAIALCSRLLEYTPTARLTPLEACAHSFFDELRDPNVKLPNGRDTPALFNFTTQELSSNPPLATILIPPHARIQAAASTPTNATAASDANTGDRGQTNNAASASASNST

Cc1cccc(-c2nc(Nc3ccncc3)c3ccccc3n2)n1 [NK215]
KINOMEscan SRPK3 [1]: 15 | KINOMEscan EPHB1 [2]: 3 | KINOMEscan MAP3K4 [3]: 16 | KINOMEscan PKN2 [4]: 0 | KINOMEscan SIK2 [5]: 0 | KINOMEscan GRK4 [6]: 0 | KINOMEscan GSK3B [7]: 0 | KINOMEscan CDK16 [8]: 0 | KINOMEscan DYRK1A [9]: 0
